Experimental data from publication doi:10.1101/2023.11.24.568596v1 (biorxiv, 2023).
Values belong to the compound of their own block, whether it stands above or below them.

Columns and labels:
Settings in all cases: binder
NEK2 = molecular target: T1, NEK2 (Homo sapiens, UniProt P51955)
T1 sequence (P51955 1-445): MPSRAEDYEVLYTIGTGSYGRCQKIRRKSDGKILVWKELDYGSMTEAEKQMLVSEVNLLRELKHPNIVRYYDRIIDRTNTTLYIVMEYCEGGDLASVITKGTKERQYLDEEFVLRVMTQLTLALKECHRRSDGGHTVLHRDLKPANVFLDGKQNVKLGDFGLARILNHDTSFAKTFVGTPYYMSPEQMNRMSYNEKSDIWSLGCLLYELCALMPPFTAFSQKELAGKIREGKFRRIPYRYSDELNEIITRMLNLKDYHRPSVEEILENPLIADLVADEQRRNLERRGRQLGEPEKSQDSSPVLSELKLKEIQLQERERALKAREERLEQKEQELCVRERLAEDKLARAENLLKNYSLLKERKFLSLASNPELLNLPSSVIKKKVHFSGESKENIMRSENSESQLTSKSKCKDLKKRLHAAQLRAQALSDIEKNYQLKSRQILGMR

DAPK1 = DAPK1 (Homo sapiens, UniProt P53355)
Chain of DAPK1 (P53355 whole entry): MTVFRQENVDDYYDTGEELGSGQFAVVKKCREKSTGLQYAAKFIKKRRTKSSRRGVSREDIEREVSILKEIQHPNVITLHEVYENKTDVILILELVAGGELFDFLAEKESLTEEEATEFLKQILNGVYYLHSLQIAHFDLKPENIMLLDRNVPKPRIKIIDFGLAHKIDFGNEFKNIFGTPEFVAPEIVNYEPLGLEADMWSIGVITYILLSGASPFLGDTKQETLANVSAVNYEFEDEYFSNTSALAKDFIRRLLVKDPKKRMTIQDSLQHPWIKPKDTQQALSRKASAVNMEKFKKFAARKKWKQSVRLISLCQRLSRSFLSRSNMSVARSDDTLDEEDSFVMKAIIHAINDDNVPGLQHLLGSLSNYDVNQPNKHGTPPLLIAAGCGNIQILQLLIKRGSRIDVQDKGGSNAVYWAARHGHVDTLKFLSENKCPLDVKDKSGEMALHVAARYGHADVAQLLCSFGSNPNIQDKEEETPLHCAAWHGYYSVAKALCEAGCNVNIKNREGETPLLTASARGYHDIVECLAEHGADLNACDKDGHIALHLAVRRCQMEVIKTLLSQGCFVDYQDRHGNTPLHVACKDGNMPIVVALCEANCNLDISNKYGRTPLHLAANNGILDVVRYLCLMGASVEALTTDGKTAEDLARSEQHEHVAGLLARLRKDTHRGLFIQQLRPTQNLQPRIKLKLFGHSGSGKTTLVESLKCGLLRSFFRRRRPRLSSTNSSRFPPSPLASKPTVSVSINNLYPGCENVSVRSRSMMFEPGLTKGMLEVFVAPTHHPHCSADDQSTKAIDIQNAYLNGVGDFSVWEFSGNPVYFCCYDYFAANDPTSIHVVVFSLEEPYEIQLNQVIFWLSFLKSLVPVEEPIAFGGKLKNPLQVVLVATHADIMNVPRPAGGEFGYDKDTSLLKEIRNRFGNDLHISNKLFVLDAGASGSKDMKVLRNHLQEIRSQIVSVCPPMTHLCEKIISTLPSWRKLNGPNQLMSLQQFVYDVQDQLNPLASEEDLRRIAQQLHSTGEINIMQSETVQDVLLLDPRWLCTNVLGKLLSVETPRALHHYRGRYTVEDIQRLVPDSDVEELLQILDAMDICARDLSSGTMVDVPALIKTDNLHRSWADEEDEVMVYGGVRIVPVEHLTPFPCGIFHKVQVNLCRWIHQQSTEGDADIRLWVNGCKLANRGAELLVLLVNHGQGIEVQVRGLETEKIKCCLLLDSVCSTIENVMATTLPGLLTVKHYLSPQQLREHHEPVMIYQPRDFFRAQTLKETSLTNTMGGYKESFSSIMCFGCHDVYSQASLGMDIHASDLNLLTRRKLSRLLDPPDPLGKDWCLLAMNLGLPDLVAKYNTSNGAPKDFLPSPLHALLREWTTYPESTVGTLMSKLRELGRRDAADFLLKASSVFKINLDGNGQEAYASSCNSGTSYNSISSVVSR

PLK4 = molecular target: T2, PLK4 (Homo sapiens, UniProt O00444)
T2 sequence (O00444 1-970): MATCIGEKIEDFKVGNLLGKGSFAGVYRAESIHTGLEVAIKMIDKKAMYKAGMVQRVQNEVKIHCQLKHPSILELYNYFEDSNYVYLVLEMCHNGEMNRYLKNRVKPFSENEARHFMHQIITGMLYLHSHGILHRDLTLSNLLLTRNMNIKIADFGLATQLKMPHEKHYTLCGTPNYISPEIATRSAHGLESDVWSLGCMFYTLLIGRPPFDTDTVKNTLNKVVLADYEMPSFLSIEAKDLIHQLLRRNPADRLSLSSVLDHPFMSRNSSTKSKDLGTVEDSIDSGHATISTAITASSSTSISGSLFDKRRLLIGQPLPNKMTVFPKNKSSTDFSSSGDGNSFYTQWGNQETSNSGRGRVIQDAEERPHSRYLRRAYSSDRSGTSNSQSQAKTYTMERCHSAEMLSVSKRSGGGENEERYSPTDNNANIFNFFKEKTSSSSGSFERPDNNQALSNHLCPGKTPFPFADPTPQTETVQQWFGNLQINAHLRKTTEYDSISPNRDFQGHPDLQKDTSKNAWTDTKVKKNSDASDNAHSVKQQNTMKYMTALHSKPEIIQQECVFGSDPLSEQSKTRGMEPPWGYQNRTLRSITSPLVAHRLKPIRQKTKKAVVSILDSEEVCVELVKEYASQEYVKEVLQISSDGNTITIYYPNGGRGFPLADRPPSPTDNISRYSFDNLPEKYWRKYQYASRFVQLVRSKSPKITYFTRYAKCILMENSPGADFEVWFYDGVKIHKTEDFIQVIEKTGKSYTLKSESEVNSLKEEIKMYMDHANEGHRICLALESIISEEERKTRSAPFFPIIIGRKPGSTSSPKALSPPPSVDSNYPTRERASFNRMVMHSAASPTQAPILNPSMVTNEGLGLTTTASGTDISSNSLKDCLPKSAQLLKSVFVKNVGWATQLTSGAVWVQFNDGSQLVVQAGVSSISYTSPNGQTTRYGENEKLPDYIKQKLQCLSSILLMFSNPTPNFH

DRAK1 = molecular target: T3, DRAK1 (Homo sapiens, UniProt Q9UEE5)
T3 sequence (Q9UEE5 1-414): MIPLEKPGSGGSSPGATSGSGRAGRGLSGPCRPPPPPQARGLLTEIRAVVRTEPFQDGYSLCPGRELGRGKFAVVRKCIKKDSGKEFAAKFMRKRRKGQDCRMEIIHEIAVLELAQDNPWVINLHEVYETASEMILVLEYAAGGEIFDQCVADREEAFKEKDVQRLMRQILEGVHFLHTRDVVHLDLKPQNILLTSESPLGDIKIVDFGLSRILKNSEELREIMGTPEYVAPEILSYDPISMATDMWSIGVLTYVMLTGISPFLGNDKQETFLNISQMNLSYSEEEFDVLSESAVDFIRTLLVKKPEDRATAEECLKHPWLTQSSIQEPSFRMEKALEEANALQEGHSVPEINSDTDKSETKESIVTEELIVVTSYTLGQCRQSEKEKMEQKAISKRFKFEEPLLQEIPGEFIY

PIM1 = PIM1 (Homo sapiens, UniProt P11309)
Chain of PIM1 (P11309 whole entry): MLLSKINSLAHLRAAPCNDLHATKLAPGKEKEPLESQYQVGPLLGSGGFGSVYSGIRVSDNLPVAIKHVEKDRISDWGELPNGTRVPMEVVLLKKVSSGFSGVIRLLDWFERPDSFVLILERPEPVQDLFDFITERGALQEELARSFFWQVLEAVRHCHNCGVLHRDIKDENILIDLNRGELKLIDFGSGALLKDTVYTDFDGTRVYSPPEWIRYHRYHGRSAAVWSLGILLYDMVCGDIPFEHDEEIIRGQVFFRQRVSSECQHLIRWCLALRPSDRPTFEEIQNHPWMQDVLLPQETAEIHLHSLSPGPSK

CaMK2b = CaMK2b (Homo sapiens, UniProt Q13554)
Chain of CaMK2b (Q13554 whole entry): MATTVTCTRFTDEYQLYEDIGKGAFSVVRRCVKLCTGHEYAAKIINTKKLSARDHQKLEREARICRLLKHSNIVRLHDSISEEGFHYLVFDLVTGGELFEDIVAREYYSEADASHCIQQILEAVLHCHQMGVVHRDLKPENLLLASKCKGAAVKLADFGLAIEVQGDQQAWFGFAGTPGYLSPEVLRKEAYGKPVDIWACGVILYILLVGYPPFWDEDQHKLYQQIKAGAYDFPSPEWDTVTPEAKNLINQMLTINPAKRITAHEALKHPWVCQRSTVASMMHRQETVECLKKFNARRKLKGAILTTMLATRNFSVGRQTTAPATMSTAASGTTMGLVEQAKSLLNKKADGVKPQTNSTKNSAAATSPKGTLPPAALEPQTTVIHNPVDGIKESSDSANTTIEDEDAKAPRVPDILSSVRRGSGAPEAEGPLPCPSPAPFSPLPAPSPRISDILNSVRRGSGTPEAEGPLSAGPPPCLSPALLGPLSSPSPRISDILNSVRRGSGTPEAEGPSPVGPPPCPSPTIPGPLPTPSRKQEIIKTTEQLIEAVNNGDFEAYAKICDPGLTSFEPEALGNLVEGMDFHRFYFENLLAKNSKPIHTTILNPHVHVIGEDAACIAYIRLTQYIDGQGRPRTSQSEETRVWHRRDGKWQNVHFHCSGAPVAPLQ

ΔTm MR30 (27) (NEK2): 6.2 °C
ΔTm MR30 (27) (DAPK1): -1.2 °C
ΔTm MR30 (27) (PLK4): 4.5 °C
ΔTm MR30 (27) (DRAK1): -0.4 °C
ΔTm MR30 (27) (PIM1): -0.5 °C
ΔTm MR30 (27) (CaMK2b): -1.1 °C
SMILES: Cc1cccc(-c2ccc(-c3cc4cnc(NCCCN5CCCC5=O)nc4n(CCCCN)c3=O)c(Cl)c2)n1 [compound 27, MR30]

ΔTm 28 (NEK2): 7.8 °C
ΔTm 28 (DAPK1): -0.7 °C
ΔTm 28 (PLK4): 8.0 °C
ΔTm 28 (DRAK1): 0.3 °C
ΔTm 28 (PIM1): 0.5 °C
ΔTm 28 (CaMK2b): 0.7 °C
SMILES: Cc1cccc(-c2ccc(-c3cc4cnc(Nc5cc(C(F)(F)F)ccc5C)nc4n(CCCCN)c3=O)c(Cl)c2)n1 [compound 28, 8-(4-Aminobutyl)-6-(2-chloro-4-(6-methylpyridin-2-yl)phenyl)-2-((2-methyl-5-(trifluoromethyl)phenyl)amino)pyrido[2,3-d]pyrimidin-7(8H)-one]

ΔTm 29 (NEK2): 5.1 °C
ΔTm 29 (DAPK1): -0.9 °C
ΔTm 29 (PLK4): 4.2 °C
ΔTm 29 (DRAK1): 1.3 °C
ΔTm 29 (PIM1): 0.6 °C
ΔTm 29 (CaMK2b): -0.5 °C
SMILES: Cc1cccc(-c2ccc(-c3cc4cnc(NCCCN5CCNCC5)nc4n(CCCCN)c3=O)c(Cl)c2)n1 [compound 29, 8-(4-Aminobutyl)-6-(2-chloro-4-(6-methylpyridin-2-yl)phenyl)-2-((3-(piperazin-1-yl)propyl)amino)pyrido[2,3-d]pyrimidin-7(8H)-one]

ΔTm 30 (NEK2): 11.6 °C
ΔTm 30 (DAPK1): -0.7 °C
ΔTm 30 (PLK4): 12.6 °C
ΔTm 30 (DRAK1): 4.0 °C
ΔTm 30 (PIM1): -0.4 °C
ΔTm 30 (CaMK2b): 0.3 °C
SMILES: Cc1cccc(-c2ccc(-c3cc4cnc(Nc5ccc(CCCO)cc5)nc4n(CCCCN)c3=O)c(Cl)c2)n1 [compound 30, 8-(4-Aminobutyl)-6-(2-chloro-4-(6-methylpyridin-2-yl)phenyl)-2-((4-(3-hydroxypropyl)phenyl)amino)pyrido[2,3-d]pyrimidin-7(8H)-one]

ΔTm 31 (NEK2): 10.8 °C
ΔTm 31 (DAPK1): -0.6 °C
ΔTm 31 (PLK4): 12.2 °C
ΔTm 31 (DRAK1): 4.5 °C
ΔTm 31 (PIM1): 3.7 °C
ΔTm 31 (CaMK2b): -0.4 °C
SMILES: Cc1cccc(-c2ccc(-c3cc4cnc(Nc5ccc(O)cc5)nc4n(CCCCN)c3=O)c(Cl)c2)n1 [compound 31, 8-(4-Aminobutyl)-6-(2-chloro-4-(6-methylpyridin-2-yl)phenyl)-2-((4-hydroxyphenyl)amino) pyrido[2,3-d]pyrimidin-7(8H)-one]

ΔTm 32 (NEK2): 10.1 °C
ΔTm 32 (DAPK1): -0.9 °C
ΔTm 32 (PLK4): 11.5 °C
ΔTm 32 (DRAK1): 5.1 °C
ΔTm 32 (PIM1): 1.2 °C
ΔTm 32 (CaMK2b): 0.3 °C
SMILES: Cc1cccc(-c2ccc(-c3cc4cnc(Nc5ccc(C)c(O)c5)nc4n(CCCCN)c3=O)c(Cl)c2)n1 [compound 32, 8-(4-Aminobutyl)-6-(2-chloro-4-(6-methylpyridin-2-yl)phenyl)-2-((3-hydroxy-4-methylphenyl)amino)pyrido[2,3-d]pyrimidin-7(8H)-one]
